Key:
[1] = Safety in patients with advanced or refractory acute leukemias; type: in vivo, human
Procedure: (§1) SNS-595 was administered to patients with advanced or refractory acute leukemias as a slow IV push. Diagnoses included AML (19 patients) and ALL (2 patients). All patients had disease refractory to or relapsed from prior therapy (median 3 prior regimens (range 1-6)). A total of 21 patients (9 female and 12 male; median age=64 yrs, range 21-80) were treated in five cohorts using two schedules. In the first schedule (A), a weekly dose of SNS-595 was administered for three weeks followed by 7 days off (qwk×3). In the second schedule (B), a dose of SNS-595 was administered twice a week for two weeks (biwk×2). The cycle duration, including days off, was 28 days for both schedules. […] Additional cycles were permitted if patients achieved stable disease or better. The starting dose was 18 mg/m^2 on schedule A and 9 mg/m^2 on schedule B, and dosage was escalated by cohort. Cohorts of 3-6 patients were accrued to doses using a modified Fibonacci sequence.

[2] = system: MO59J (DNAPKcs(−/−)) vs MO59K (DNAPKCs(+/+)); assay: MTT assay, sensitization (DNAPKcs(−/−)); type: cell-based
Procedure: (§2) Cells were then incubated with 5% MTT for 1-2 hours and lysed. MTT was colorimetrically read at 570 nm and EC50's were determined using linear regression analysis.
(§3) Sensitization was carried out with various chemical treatments.

clinical = details: human, in vivo
Procedure: SNS-595 was administered to patients with advanced solid cancers as an IV infusion over 10 minutes on 2 schedules. In the first schedule (A), a weekly dose of SNS-595 was administered for three weeks followed by at least 7 days off (qwk×3). In the second schedule (B), a dose of SNS-595 was administered once every three weeks (q3wk).
In both schedules, the starting dose of SNS-595 was 3 mg/m^2, and doses were escalated by sequential cohorts of 3. The doses were doubled until the first related adverse event at or above Grade 2 or until the first abnormal lab value. The doses were then escalated by a modified Fibonacci schema.
For patients dosed according to schedule A, PK samples were collected on treatment Days 1 and 15 and were assayed using noncompartmental analysis. Plasma SNS-595 concentrations were determined using a validated LC-MS/MS assay. […] FIG. 1 depicts the plasma concentrations of SNS-595 over time among the various patient cohorts.
For patients dosed according to schedule B, pharmacokinetic parameters were evaluated in 36 patients (21 heavily pretreated and 15 minimally pretreated) after a single dose of 3 to 75 mg/m^2.
In study A, pharmacokinetics were assessed on Days 1 and 15 (after the first and third doses).

[3] = system: advanced or refractory acute leukemias; assay: Peripheral blasts in patients with advanced or refractory acute leukemias; type: in vivo, human; details: six patients distributed across all dosing groups of Table 15, following cycle 1
Procedure: as §1

[4] = system: HCT-116 cells with 6 fold lower ATR levels; assay: MTT assay, sensitization (ATRFLOX); type: cell-based; details: compound 72 hours
Procedure: as §2, §3

## CN[C@H]1CN(c2ccc3c(=O)c(C(=O)O)cn(-c4nccs4)c3n2)C[C@@H]1OC [SNS-595, (+)-1,4-dihydro-7-[(3S,4S)-3-methoxy-4-(methylamino)-1-pyrrolidinyl]-4-oxo-1-(2-thiazolyl)-1,8-naphthyridine-3-carboxylic acid]
[1]; acute leukemia patients
  Grade 4 neutropenic fever: only one patient
  Non-dose limiting toxicities: nausea/vomiting, diarrhea, and mucositis
[1]; biwk x2, 1 patient
  SAE possibly related to study drug: Infection, CTCAE v3.0 Grade: Grade 3
  SAE possibly related to study drug: Neutropenic Fevers, CTCAE v3.0 Grade: Grade 4
[1]; qwk x3, 1 patient
  SAE possibly related to study drug: Infection with Neutropenia, CTCAE v3.0 Grade: Grade 3
  SAE possibly related to study drug: Pneumonia with Neutropenia, CTCAE v3.0 Grade: Grade 3
[1]; up to 13.5 mg/m^2 on the biwk×2 schedule
  dose limiting toxicities (DLTs): No dose limiting toxicities
[1]; up to 27 mg/m^2 on the qwk×3 schedule
  dose limiting toxicities (DLTs): No dose limiting toxicities
[2]; ATM/ATR or DNAPK activity inhibited or diminished
  sensitization, PIKK dependence: only when DNAPKcs activity is diminished
[2]; MO59J (DNAPKcs(−/−)) vs MO59K (DNAPKCs(+/+)), compound 72 hours
  Sensitization, fold decrease in the EC50 for cytotoxicity (MTT): DNAPKcs(−/−): 10 fold
clinical
  AUC (area under curve) versus dose: increased proportionally with dose
  CL, averaged: 2 L/hr/m^2
  CL, volume of distribution and T1/2 across doses: remained unchanged
  Clearance (CL): 2.2 L/hr/m2
  Clearance (CL), range: 1.0-3.8 L/hr/m^2
  Exposure: 1.6 to 15 µg·h/mL
  T ½, Average: 21.3 ± 5.3 h
  T ½, Range: 13 to 56 h
  Vss, averaged: 53 L/m^2
  clearance (CL), averaged: 2 L/hr/m^2
  drug dependent alterations in pharmacokinetic parameters: No evidence of drug dependent alterations
  exposure: 1.1 to 46 µg·h/mL
  volume of distribution (Vss), averaged: 48 L/m^2
clinical; 3 mg/m2
  AUCinf: 1.14 ± 0.26 µg·h/mL
  T ½: 16.4 ± 4.8 h
clinical; 3 mg/m2, AUCinf
  AUC(0-inf): 1710 ± 200 ng·h/mL
clinical; 3 mg/m2, T ½
  half-life: 1400 ± 432 min
clinical; 6 mg/m2
  AUCinf: 3.04 ± 0.32 µg·h/mL
  Cmax: 347 ± 220 ng/mL
  T ½: 22.2 ± 1.9 h
clinical; 6 mg/m2, AUCinf
  AUC(0-inf): 2090 ± 530 ng·h/mL
clinical; 6 mg/m2, Cmax
  Cmax: 531 ± 280 ng/mL
clinical; 6 mg/m2, T ½
  half-life: 810 ± 132 min
clinical; 12 mg/m2
  AUCinf: 6.32 ± 0.22 µg·h/mL
  Cmax: 2250 ± 1070 ng/mL
  T ½: 18.0 ± 4.1 h
clinical; 12 mg/m2, AUCinf
  AUC(0-inf): 6810 ± 1680 ng·h/mL
clinical; 12 mg/m2, Cmax
  Cmax: 1840 ± 2700 ng/mL
clinical; 12 mg/m2, T ½
  half-life: 1190 ± 318 min
clinical; 15 mg/m2
  T ½: 26.4 ± 15.2 h
  Vssobs: 43.8 ± 7.90 L/m^2
clinical; 15 mg/m2, AUCinf
  AUC(0-inf): 10800 ± 4700 ng·h/mL
clinical; 15 mg/m2, Cmax
  Cmax: 865 ± 318 ng/mL
clinical; 18 mg/m2
  Vssobs: 47.19 ± 8.06 L/m^2
clinical; 18 mg/m2, AUCinf
  AUC(0-inf): 8500 ± 2860 ng·h/mL
clinical; 18 mg/m2, Cmax
  Cmax: 1690 ± 830 ng/mL
clinical; 18 mg/m2, T ½
  half-life: 948 ± 252 min
clinical; 24 mg/m2
  AUCinf: 12.63 ± 0.86 µg·h/mL
  T ½: 15.7 ± 3.2 h
clinical; 24 mg/m2, AUCinf
  AUC(0-inf): 15200 ng·h/mL
clinical; 24 mg/m2, T ½
  half-life: 1450 min
clinical; 36 mg/m2
  T ½: 22.5 ± 4.2 h
  Vssobs: 61.4 ± 12.8 L/m^2
clinical; 36 mg/m2, AUCinf
  AUC(0-inf): 18000 ± 730 ng·h/mL
clinical; 36 mg/m2, Cmax
  Cmax: 3380 ± 1920 ng/mL
clinical; 48 mg/m2
  T ½: 26.4 ± 13.1 h
  Vssobs: 58.8 ± 14.5 L/m^2
clinical; 48 mg/m2, AUCinf
  AUC(0-inf): 29400 ± 11300 ng·h/mL
clinical; 48 mg/m2, Cmax
  Cmax: 3080 ± 1920 ng/mL
clinical; 60 mg/m2
  T ½: 25.0 ± 17.9 h
  Vssobs: 48.0 ± 7.3 L/m^2
clinical; 60 mg/m2, AUCinf
  AUC(0-inf): 40700 ± 23700 ng·h/mL
clinical; 60 mg/m2, Cmax
  Cmax: 3860 ± 1680 ng/mL
clinical; 75 mg/m2
  T ½: 25.0 ± 4.9 h
  Vssobs: 56.3 ± 9.4 L/m^2
clinical; 75 mg/m2, AUCinf
  AUC(0-inf): 46100 ± 6120 ng·h/mL
clinical; 75 mg/m2, Cmax
  Cmax: 5050 ± 1720 ng/mL
clinical; T1/2, averaged
  half-life: 1140 min
clinical; T1/2 ± SD
  half-life: 1320 ± 660 min
clinical; T ½, Average
  half-life: 1110 ± 276 min
clinical; T ½, Range
  half-life: 600 to 1980 min
clinical; terminal half-life
  half-life: ~1140 min
clinical; terminal half-life (T1/2)
  half-life: ~1260 min
clinical; terminal half-life (T1/2), range
  half-life: 780 to 2940 min
[3]
  reductions in peripheral blasts: greater than 50%
[4]
  Sensitization, fold decrease in the EC50 for cytotoxicity (MTT): ATRFLOX: 1 fold
